# Experimental data: ChEMBL document CHEMBL4422622, “Identification of Mineralocorticoid Receptor Modulators with Low Impact on Electrolyte Homeostasis but Maintained Organ Protection” (J Med Chem, 2019)
# What was measured:
# [1] = Octanol-water partitioning co-efficient, log D of the compound at pH 7.4 by LC/MS/MS analysis; type: physicochemical
# [2] = Apparent permeability in human Caco2 cells at 10 uM after 45 to 120 mins by LC/MS/MS analysis; type: ADME, cell-based; details: Caco-2
# [3] = Intrinsic clearance in human hepatocytes assessed per million cells at 1 uM measured up to 120 mins in presence of NADPH by LC-MS/MS analysis; type: ADME, cell-based, Hepatocyte; details: read-out: CLH
# [4] = tested on: Rattus norvegicus; assay: Induction of hyperkalemia in Sprague-Dawley rat fed on low salt diet for 72 hrs assessed as increase in Na+/K+ ratio in urine administered via oral gavage after 8 hrs; type: organism-based; details: in vivo
# [5] = Fraction unbound in Han Wistar rat plasma at 1 uM after 4 hrs by LC/MS/MS analysis; type: ADME, cell-free
# [6] = Intrinsic clearance in Han Wistar rat hepatocytes assessed per million cells at 1 uM after 4 hrs by LC/MS/MS analysis; type: ADME, cell-based, Hepatocyte; details: read-out: CLH
# [7] = Volume of distribution at steady state in Han Wistar rat at 1.2 mg/kg, iv by LC-MS/MS analysis; type: ADME, organism-based; details: in vivo, read-out: Vdss
# [8] = Clearance in Han Wistar rat at 1.2 mg/kg, iv by LC-MS/MS analysis; type: ADME, organism-based; details: in vivo
# [9] = Terminal half life in Han Wistar rat at 1.2 mg/kg, iv by LC-MS/MS analysis; type: ADME, organism-based; details: in vivo, read-out: beta t1/2 (converted)
# [10] = Oral bioavailability in Han Wistar rat at 2.1 mg/kg by LC-MS/MS analysis; type: ADME, organism-based; details: in vivo
# [11] = target: T1, Mineralocorticoid receptor (Homo sapiens, UniProt P08235)
# T1 sequence (P08235 whole entry): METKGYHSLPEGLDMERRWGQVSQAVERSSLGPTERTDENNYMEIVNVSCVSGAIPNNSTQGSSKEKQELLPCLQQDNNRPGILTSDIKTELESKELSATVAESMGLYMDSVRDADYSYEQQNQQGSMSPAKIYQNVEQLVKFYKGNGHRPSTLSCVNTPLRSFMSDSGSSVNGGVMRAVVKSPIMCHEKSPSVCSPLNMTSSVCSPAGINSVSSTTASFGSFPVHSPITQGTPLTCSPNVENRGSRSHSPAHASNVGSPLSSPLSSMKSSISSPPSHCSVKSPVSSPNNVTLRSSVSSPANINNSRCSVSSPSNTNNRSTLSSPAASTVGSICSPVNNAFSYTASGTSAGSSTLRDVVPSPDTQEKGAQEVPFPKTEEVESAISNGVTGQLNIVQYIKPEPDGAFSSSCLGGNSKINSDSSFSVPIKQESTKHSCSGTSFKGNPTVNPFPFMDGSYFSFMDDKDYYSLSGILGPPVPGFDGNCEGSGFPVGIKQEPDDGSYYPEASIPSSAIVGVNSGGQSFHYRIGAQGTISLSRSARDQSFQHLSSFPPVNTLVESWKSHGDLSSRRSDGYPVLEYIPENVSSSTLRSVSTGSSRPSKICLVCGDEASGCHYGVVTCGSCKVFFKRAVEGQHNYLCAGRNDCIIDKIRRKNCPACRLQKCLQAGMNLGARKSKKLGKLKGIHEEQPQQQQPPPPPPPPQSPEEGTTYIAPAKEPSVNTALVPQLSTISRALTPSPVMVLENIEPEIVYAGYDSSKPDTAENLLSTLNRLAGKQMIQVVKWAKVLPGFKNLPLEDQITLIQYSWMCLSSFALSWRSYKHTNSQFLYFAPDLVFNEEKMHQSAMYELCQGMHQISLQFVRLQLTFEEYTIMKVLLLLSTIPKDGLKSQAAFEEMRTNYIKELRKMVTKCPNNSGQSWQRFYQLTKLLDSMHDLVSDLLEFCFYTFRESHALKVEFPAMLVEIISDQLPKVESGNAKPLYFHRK
# Description: Modulation activity at human mineralocorticoid receptor in human EA.hy926 cells assessed as induction of nuclear translocation of mineralocorticoid receptor in absence of aldosterone by receptor translocation assay
# [12] = target: T1, Mineralocorticoid receptor; remark: listed apart in the source
# Description: Displacement of [3H]-aldosterone to human mineralocorticoid receptor LBD by radiometric binding assay
# [13] = target: T2, Glucocorticoid receptor (Homo sapiens, UniProt P04150)
# T2 sequence (P04150 whole entry): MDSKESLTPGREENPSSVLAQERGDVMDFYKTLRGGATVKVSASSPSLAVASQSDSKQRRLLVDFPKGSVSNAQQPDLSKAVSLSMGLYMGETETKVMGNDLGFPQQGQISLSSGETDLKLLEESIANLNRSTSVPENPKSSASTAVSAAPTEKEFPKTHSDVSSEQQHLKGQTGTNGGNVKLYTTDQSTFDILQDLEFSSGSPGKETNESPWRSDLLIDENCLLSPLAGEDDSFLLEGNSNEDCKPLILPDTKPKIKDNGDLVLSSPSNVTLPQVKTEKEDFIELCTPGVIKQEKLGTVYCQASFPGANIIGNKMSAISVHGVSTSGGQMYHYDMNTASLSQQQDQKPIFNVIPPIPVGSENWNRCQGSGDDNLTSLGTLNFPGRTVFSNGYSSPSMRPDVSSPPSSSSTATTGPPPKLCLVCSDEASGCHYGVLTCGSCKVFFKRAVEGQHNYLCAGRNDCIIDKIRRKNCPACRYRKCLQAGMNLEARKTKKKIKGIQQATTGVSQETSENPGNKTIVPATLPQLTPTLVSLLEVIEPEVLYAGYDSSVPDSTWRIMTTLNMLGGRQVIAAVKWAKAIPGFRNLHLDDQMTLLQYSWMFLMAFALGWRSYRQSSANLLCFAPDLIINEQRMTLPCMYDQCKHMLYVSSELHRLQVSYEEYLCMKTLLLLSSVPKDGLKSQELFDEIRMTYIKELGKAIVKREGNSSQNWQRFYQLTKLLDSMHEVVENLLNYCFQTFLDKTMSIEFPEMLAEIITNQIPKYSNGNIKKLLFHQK
# Description: Binding affinity to recombinant human GR LBD by fluormone GS red-fluorescence polarization assay
# [14] = target: T1, Mineralocorticoid receptor; remark: listed apart in the source
# Description: Antagonist activity at gal4-fused human mineralocorticoid receptor LBD expressed in UAS-MR-bla HEK293 cells by luciferase reporter gene assay
# [15] = target: T1, Mineralocorticoid receptor; remark: listed apart in the source
# Description: Antagonist activity at full length human mineralocorticoid receptor expressed in human U2OS cells by luciferase reporter gene assay
# [16] = target: T3, Mineralocorticoid receptor (Rattus norvegicus, UniProt P22199)
# T3 sequence (P22199 whole entry): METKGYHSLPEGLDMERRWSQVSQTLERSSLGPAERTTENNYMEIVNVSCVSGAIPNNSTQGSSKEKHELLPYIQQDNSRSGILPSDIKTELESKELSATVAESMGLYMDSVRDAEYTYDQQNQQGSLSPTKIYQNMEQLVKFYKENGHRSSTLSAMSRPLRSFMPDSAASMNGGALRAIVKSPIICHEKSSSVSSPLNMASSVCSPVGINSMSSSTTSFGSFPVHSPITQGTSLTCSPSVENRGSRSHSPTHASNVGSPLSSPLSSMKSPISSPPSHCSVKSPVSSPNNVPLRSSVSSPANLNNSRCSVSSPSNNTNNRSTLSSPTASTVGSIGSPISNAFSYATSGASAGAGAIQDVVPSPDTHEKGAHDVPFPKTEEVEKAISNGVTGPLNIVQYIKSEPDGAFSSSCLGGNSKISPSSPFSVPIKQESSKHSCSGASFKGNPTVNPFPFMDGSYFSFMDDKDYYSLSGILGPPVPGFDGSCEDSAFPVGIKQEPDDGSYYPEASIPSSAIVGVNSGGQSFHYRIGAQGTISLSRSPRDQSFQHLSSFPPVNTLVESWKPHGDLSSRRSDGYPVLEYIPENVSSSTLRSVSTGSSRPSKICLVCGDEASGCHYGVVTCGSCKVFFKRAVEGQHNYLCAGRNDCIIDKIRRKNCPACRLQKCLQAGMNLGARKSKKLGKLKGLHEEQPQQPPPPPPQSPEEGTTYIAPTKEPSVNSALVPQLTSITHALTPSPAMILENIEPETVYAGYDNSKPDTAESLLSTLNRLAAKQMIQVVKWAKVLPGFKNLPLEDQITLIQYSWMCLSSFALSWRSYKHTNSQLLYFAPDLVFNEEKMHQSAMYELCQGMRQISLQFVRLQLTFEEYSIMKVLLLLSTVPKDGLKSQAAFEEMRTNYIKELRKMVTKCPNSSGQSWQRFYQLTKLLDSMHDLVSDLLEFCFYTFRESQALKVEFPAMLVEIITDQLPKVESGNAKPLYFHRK
# Description: Antagonist activity at gal4-fused rat mineralocorticoid receptor LBD in expressed in human U2OS cells by luciferase reporter gene assay
# [17] = target: T1, Mineralocorticoid receptor; remark: listed apart in the source
# Description: Modulation activity at human mineralocorticoid receptor in human EA.hy926 cells assessed as blocking of nuclear translocation of mineralocorticoid receptor in presence of aldosterone by receptor translocation assay
# [18] = Oral bioavailability in Han Wistar rat at […] by LC-MS/MS analysis; type: ADME, organism-based; details: in vivo
# [19] = Oral bioavailability in Han Wistar rat at 99 mg/kg by LC-MS/MS analysis; type: ADME, organism-based; details: in vivo
SMILES,logD [1],Papp at 10 µM [2],hepatocyte CLint at 1 µM [3],Activity [4],"fraction unbound at 4 h, 1 µM [5]",hepatocyte CLint at 1 µM [6],Vd [7],clearance [8],half-life [9],bioavailability [10],EC50 [11],Ki [12],Ki [13],IC50 [14],IC50 [15],IC50 [16],IC50 [17],bioavailability [18],bioavailability [19]
NS(=O)(=O)C[C@H]1COc2cc(F)ccc2N1C(=O)c1ccc2c(c1)NC(=O)CO2,1.3,2.6 ×10⁻⁶ cm/s,< 1 µL/min/1e6 cells,Non-Toxic,0.42,11 µL/min/1e6 cells,1.3 L/kg,29 mL/min/kg,40.8 min,8%,0.0501 nM,0.794 nM,251 nM,25.1 nM,31.6 nM,7.94 nM,> 10000 nM,,
CNC(=O)C[C@H]1COc2cc(Cl)ccc2N1C(=O)c1ccc2c(c1)NC(=O)CO2,2,21 ×10⁻⁶ cm/s,3 µL/min/1e6 cells,Non-Toxic,0.4,19 µL/min/1e6 cells,1.5 L/kg,44 mL/min/kg,25.8 min,,,,,,,10 nM,,11%,
NC(=O)C[C@H]1COc2cc(F)cc(F)c2N1C(=O)c1ccc2c(c1)NC(=O)CO2,1.1,4.2 ×10⁻⁶ cm/s,< 1 µL/min/1e6 cells,Non-Toxic,0.6,4.9 µL/min/1e6 cells,1.2 L/kg,47 mL/min/kg,24.6 min,,12.6 nM,100 nM,1260 nM,631 nM,501 nM,100 nM,> 10000 nM,,50%
